From US12054447B2, “PCNA inhibitors” (City of Hope, priority 2015, dated 2024)

What follows are compounds tested on MOLT-4 (assay: NCI-60 panel test). Conditions: Homo sapiens; MOLT-4, NCI-60 5-dose study.
Type: cell-based
Description: (§1) FIG. 7. NCI-60 panel test. The effect of AOH1160 on growth of the NCI-60 panel, which consists of 60 cancer cell lines representing 9 major cancer types, was tested in a 5-dose study. Shown are the Log IC50 values determined for each cell line. […] This study was performed by the National Institute of Cancer.
(§2) As observed in FIG. 7, the effect of AOH1160 on growth of the NCI-60 panel, which consists of 60 cancer cell lines representing 9 major cancer types, was tested in a 5-dose study. Shown are the Log IC50 values determined for each cell line.

Structure (SMILES)	GI50
COc1cccc(Oc2ccccc2NC(=O)CNC(=O)c2cccc3ccccc23)c1 [PCNA7/ AOH1996]	661 nM

Each compound was assayed on SF-268 (assay: NCI-60 panel test). Conditions: Homo sapiens.
Type: cell-based
Description: as §1, §2

Structure (SMILES)	GI50
COc1cccc(Oc2ccccc2NC(=O)CNC(=O)c2cccc3ccccc23)c1 [PCNA7/ AOH1996]	550 nM

What follows are compounds tested on NCI/ADR-RES (assay: NCI-60 panel test). Conditions: Homo sapiens, NCI-60 5-dose study.
Type: cell-based
Description: as §1, §2

Structure (SMILES)	GI50
COc1cccc(Oc2ccccc2NC(=O)CNC(=O)c2cccc3ccccc23)c1 [PCNA7/ AOH1996]	240 nM

Each compound was assayed on HCT-116 (assay: NCI-60 panel test). Conditions: Homo sapiens; HCT-116, NCI-60 5-dose study.
Type: cell-based
Description: as §1, §2

Structure (SMILES)	GI50
COc1cccc(Oc2ccccc2NC(=O)CNC(=O)c2cccc3ccccc23)c1 [PCNA7/ AOH1996]	95.5 nM

These compounds were tested on OVCAR-5 (assay: NCI-60 panel test). Conditions: Homo sapiens; OVCAR-5, NCI-60 5-dose study.
Type: cell-based
Description: as §1, §2

Structure (SMILES)	GI50
COc1cccc(Oc2ccccc2NC(=O)CNC(=O)c2cccc3ccccc23)c1 [PCNA7/ AOH1996]	1120 nM

Each compound was assayed on CCRF-CEM (assay: NCI-60 panel test). Conditions: Homo sapiens, NCI-60 5-dose study.
Type: cell-based
Description: as §1, §2

Structure (SMILES)	GI50
COc1cccc(Oc2ccccc2NC(=O)CNC(=O)c2cccc3ccccc23)c1 [PCNA7/ AOH1996]	363 nM

The compounds below were run on SN12C (assay: NCI-60 panel test). Conditions: Homo sapiens, NCI-60 5-dose study.
Type: cell-based
Description: as §1, §2

Structure (SMILES)	GI50
COc1cccc(Oc2ccccc2NC(=O)CNC(=O)c2cccc3ccccc23)c1 [PCNA7/ AOH1996]	1450 nM

What follows are compounds tested on NCI-H522 (assay: NCI-60 panel test). Conditions: Homo sapiens; NCI-H522, NCI-60 5-dose study.
Type: cell-based
Description: as §1, §2

Structure (SMILES)	GI50
COc1cccc(Oc2ccccc2NC(=O)CNC(=O)c2cccc3ccccc23)c1 [PCNA7/ AOH1996]	178 nM

What follows are compounds tested on M14 (assay: NCI-60 panel test). Conditions: Homo sapiens; M14, NCI-60 5-dose study.
Type: cell-based
Description: as §1, §2

Structure (SMILES)	GI50
COc1cccc(Oc2ccccc2NC(=O)CNC(=O)c2cccc3ccccc23)c1 [PCNA7/ AOH1996]	158 nM

Each compound was assayed on IGROV1 (assay: NCI-60 panel test). Conditions: Homo sapiens, IGROV-1; IGROV1, NCI-60 5-dose study.
Type: cell-based
Description: as §1, §2

Structure (SMILES)	GI50
COc1cccc(Oc2ccccc2NC(=O)CNC(=O)c2cccc3ccccc23)c1 [PCNA7/ AOH1996]	1050 nM

Each compound was assayed on MALME-3M (assay: NCI-60 panel test). Conditions: Homo sapiens, NCI-60 5-dose study.
Type: cell-based
Description: as §1, §2

Structure (SMILES)	GI50
COc1cccc(Oc2ccccc2NC(=O)CNC(=O)c2cccc3ccccc23)c1 [PCNA7/ AOH1996]	17000 nM

The compounds below were run on LOX IMVI (assay: NCI-60 panel test). Conditions: Homo sapiens, NCI-60 5-dose study.
Type: cell-based
Description: as §1, §2

Structure (SMILES)	GI50
COc1cccc(Oc2ccccc2NC(=O)CNC(=O)c2cccc3ccccc23)c1 [PCNA7/ AOH1996]	269 nM

Each compound was assayed on MDA-MB-468 (assay: NCI-60 panel test). Conditions: Homo sapiens; MDA-MB-468, NCI-60 5-dose study.
Type: cell-based
Description: as §1, §2

Structure (SMILES)	GI50
COc1cccc(Oc2ccccc2NC(=O)CNC(=O)c2cccc3ccccc23)c1 [PCNA7/ AOH1996]	331 nM

Each compound was assayed on HOP-92 (assay: NCI-60 panel test). Conditions: Homo sapiens; HOP-92, NCI-60 5-dose study.
Type: cell-based
Description: as §1, §2

Structure (SMILES)	GI50
COc1cccc(Oc2ccccc2NC(=O)CNC(=O)c2cccc3ccccc23)c1 [PCNA7/ AOH1996]	204 nM

The compounds below were run on NCI-H226 (assay: NCI-60 panel test). Conditions: Homo sapiens; NCI-H226, NCI-60 5-dose study.
Type: cell-based
Description: as §1, §2

Structure (SMILES)	GI50
COc1cccc(Oc2ccccc2NC(=O)CNC(=O)c2cccc3ccccc23)c1 [PCNA7/ AOH1996]	2510 nM

The compounds below were run on HCC-2998 (assay: NCI-60 panel test). Conditions: Homo sapiens; HCC-2998, NCI-60 5-dose study.
Type: cell-based
Description: as §1, §2

Structure (SMILES)	GI50
COc1cccc(Oc2ccccc2NC(=O)CNC(=O)c2cccc3ccccc23)c1 [PCNA7/ AOH1996]	1260 nM

Each compound was assayed on KM12 (assay: NCI-60 panel test). Conditions: Homo sapiens; KM12, NCI-60 5-dose study.
Type: cell-based
Description: as §1, §2

Structure (SMILES)	GI50
COc1cccc(Oc2ccccc2NC(=O)CNC(=O)c2cccc3ccccc23)c1 [PCNA7/ AOH1996]	191 nM

What follows are compounds tested on SK-MEL-28 (assay: NCI-60 panel test). Conditions: Homo sapiens; SK-MEL-28, NCI-60 5-dose study.
Type: cell-based
Description: as §1, §2

Structure (SMILES)	GI50
COc1cccc(Oc2ccccc2NC(=O)CNC(=O)c2cccc3ccccc23)c1 [PCNA7/ AOH1996]	4370 nM

These compounds were tested on SK-OV-3 (assay: NCI-60 panel test). Conditions: Homo sapiens; SK-OV-3, NCI-60 5-dose study.
Type: cell-based
Description: as §1, §2

Structure (SMILES)	GI50
COc1cccc(Oc2ccccc2NC(=O)CNC(=O)c2cccc3ccccc23)c1 [PCNA7/ AOH1996]	490 nM

Each compound was assayed on MDA-MB-435 (assay: NCI-60 panel test). Conditions: Homo sapiens; MDA-MB-435, NCI-60 5-dose study.
Type: cell-based
Description: as §1, §2

Structure (SMILES)	GI50
COc1cccc(Oc2ccccc2NC(=O)CNC(=O)c2cccc3ccccc23)c1 [PCNA7/ AOH1996]	70.8 nM

The compounds below were run on COLO 205 (assay: NCI-60 panel test). Conditions: Homo sapiens.
Type: cell-based
Description: as §1, §2

Structure (SMILES)	GI50
COc1cccc(Oc2ccccc2NC(=O)CNC(=O)c2cccc3ccccc23)c1 [PCNA7/ AOH1996]	282 nM

These compounds were tested on RXF 393 (assay: NCI-60 panel test). Conditions: Homo sapiens; RXF 393, NCI-60 5-dose study.
Type: cell-based
Description: as §1, §2

Structure (SMILES)	GI50
COc1cccc(Oc2ccccc2NC(=O)CNC(=O)c2cccc3ccccc23)c1 [PCNA7/ AOH1996]	166 nM

These compounds were tested on PC-3 (assay: NCI-60 panel test). Conditions: Homo sapiens; PC-3, NCI-60 5-dose study.
Type: cell-based
Description: as §1, §2

Structure (SMILES)	GI50
COc1cccc(Oc2ccccc2NC(=O)CNC(=O)c2cccc3ccccc23)c1 [PCNA7/ AOH1996]	282 nM

These compounds were tested on 786-0 (assay: NCI-60 panel test). Conditions: Homo sapiens; 786-0, NCI-60 5-dose study.
Type: cell-based
Description: as §1, §2

Structure (SMILES)	GI50
COc1cccc(Oc2ccccc2NC(=O)CNC(=O)c2cccc3ccccc23)c1 [PCNA7/ AOH1996]	182 nM

Each compound was assayed on SK-MEL-2 (assay: NCI-60 panel test). Conditions: Homo sapiens; SK-MEL-2, NCI-60 5-dose study.
Type: cell-based
Description: as §1, §2

Structure (SMILES)	GI50
COc1cccc(Oc2ccccc2NC(=O)CNC(=O)c2cccc3ccccc23)c1 [PCNA7/ AOH1996]	182 nM

The compounds below were run on BT-549 (assay: NCI-60 panel test). Conditions: Homo sapiens; BT-549, NCI-60 5-dose study.
Type: cell-based
Description: as §1, §2

Structure (SMILES)	GI50
COc1cccc(Oc2ccccc2NC(=O)CNC(=O)c2cccc3ccccc23)c1 [PCNA7/ AOH1996]	295 nM

What follows are compounds tested on HCT-15 (assay: NCI-60 panel test). Conditions: Homo sapiens; HCT-15, NCI-60 5-dose study.
Type: cell-based
Description: as §1, §2

Structure (SMILES)	GI50
COc1cccc(Oc2ccccc2NC(=O)CNC(=O)c2cccc3ccccc23)c1 [PCNA7/ AOH1996]	129 nM

These compounds were tested on NCI-H322M (assay: NCI-60 panel test). Conditions: Homo sapiens, NCI-60 5-dose study.
Type: cell-based
Description: as §1, §2

Structure (SMILES)	GI50
COc1cccc(Oc2ccccc2NC(=O)CNC(=O)c2cccc3ccccc23)c1 [PCNA7/ AOH1996]	1290 nM

These compounds were tested on SNB-19 (assay: NCI-60 panel test). Conditions: Homo sapiens; SNB-19, NCI-60 5-dose study.
Type: cell-based
Description: as §1, §2

Structure (SMILES)	GI50
COc1cccc(Oc2ccccc2NC(=O)CNC(=O)c2cccc3ccccc23)c1 [PCNA7/ AOH1996]	617 nM

The compounds below were run on SNB-75 (assay: NCI-60 panel test). Conditions: Homo sapiens; SNB-75, NCI-60 5-dose study.
Type: cell-based
Description: as §1, §2

Structure (SMILES)	GI50
COc1cccc(Oc2ccccc2NC(=O)CNC(=O)c2cccc3ccccc23)c1 [PCNA7/ AOH1996]	129 nM

What follows are compounds tested on SW-620 (assay: NCI-60 panel test). Conditions: Homo sapiens; SW-620, NCI-60 5-dose study.
Type: cell-based
Description: as §1, §2

Structure (SMILES)	GI50
COc1cccc(Oc2ccccc2NC(=O)CNC(=O)c2cccc3ccccc23)c1 [PCNA7/ AOH1996]	166 nM

The compounds below were run on OVCAR-8 (assay: NCI-60 panel test). Conditions: Homo sapiens; OVCAR-8, NCI-60 5-dose study.
Type: cell-based
Description: as §1, §2

Structure (SMILES)	GI50
COc1cccc(Oc2ccccc2NC(=O)CNC(=O)c2cccc3ccccc23)c1 [PCNA7/ AOH1996]	692 nM

These compounds were tested on HOP-62 (assay: NCI-60 panel test). Conditions: Homo sapiens; HOP-62, NCI-60 5-dose study.
Type: cell-based
Description: as §1, §2

Structure (SMILES)	GI50
COc1cccc(Oc2ccccc2NC(=O)CNC(=O)c2cccc3ccccc23)c1 [PCNA7/ AOH1996]	302 nM

Each compound was assayed on NCI-H23 (assay: NCI-60 panel test). Conditions: Homo sapiens; NCI-H23, NCI-60 5-dose study.
Type: cell-based
Description: as §1, §2

Structure (SMILES)	GI50
COc1cccc(Oc2ccccc2NC(=O)CNC(=O)c2cccc3ccccc23)c1 [PCNA7/ AOH1996]	741 nM

Each compound was assayed on A498 (assay: NCI-60 panel test). Conditions: Homo sapiens; A498, NCI-60 5-dose study.
Type: cell-based
Description: as §1, §2

Structure (SMILES)	GI50
COc1cccc(Oc2ccccc2NC(=O)CNC(=O)c2cccc3ccccc23)c1 [PCNA7/ AOH1996]	115 nM

Each compound was assayed on U251 (assay: NCI-60 panel test). Conditions: Homo sapiens, U-251; U251, NCI-60 5-dose study.
Type: cell-based
Description: as §1, §2

Structure (SMILES)	GI50
COc1cccc(Oc2ccccc2NC(=O)CNC(=O)c2cccc3ccccc23)c1 [PCNA7/ AOH1996]	240 nM

What follows are compounds tested on MCF7 (assay: NCI-60 panel test). Conditions: Homo sapiens; MCF7, NCI-60 5-dose study.
Type: cell-based
Description: as §1, §2

Structure (SMILES)	GI50
COc1cccc(Oc2ccccc2NC(=O)CNC(=O)c2cccc3ccccc23)c1 [PCNA7/ AOH1996]	100 nM

What follows are compounds tested on K-562 (assay: NCI-60 panel test). Conditions: Homo sapiens, K562; K-562, NCI-60 5-dose study.
Type: cell-based
Description: as §1, §2

Structure (SMILES)	GI50
COc1cccc(Oc2ccccc2NC(=O)CNC(=O)c2cccc3ccccc23)c1 [PCNA7/ AOH1996]	129 nM
